From US8440652B2, “MST1 kinase inhibitors and methods of their use” (Lexicon Pharmaceuticals, Inc., priority 2011, dated 2013)
Read-outs that look alike come from different tables or passages of the source.

Molecular target: T1, MST1 (Homo sapiens, UniProt Q13043)
T1 sequence (Q13043 1-487): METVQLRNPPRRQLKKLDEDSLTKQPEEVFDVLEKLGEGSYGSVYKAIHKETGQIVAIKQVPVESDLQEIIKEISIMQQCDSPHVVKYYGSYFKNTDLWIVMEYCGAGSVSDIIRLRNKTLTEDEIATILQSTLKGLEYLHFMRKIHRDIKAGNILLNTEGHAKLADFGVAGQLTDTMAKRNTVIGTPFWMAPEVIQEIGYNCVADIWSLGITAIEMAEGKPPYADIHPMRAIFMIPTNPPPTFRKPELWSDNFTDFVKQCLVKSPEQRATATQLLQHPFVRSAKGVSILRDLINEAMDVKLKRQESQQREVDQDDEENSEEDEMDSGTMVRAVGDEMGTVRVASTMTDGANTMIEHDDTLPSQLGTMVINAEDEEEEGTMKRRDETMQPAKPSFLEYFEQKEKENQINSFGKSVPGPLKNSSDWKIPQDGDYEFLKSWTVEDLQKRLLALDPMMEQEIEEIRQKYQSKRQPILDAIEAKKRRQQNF
Assay: In vitro measurement of MST1 inhibition (Z′-Lyte kinase assay)
Assay type: biochemical
Method: Assays were performed in low-volume 384-well black proxiplates (Perkin Elmer, PE-Blk-Proxi-6008269). Eight compounds were first diluted into LDV (Echo) plates using a Multiprobe, at a starting concentration of 1 mM compound in 100% DMSO. Using the ECHO, 75 nl compound was pinged into 384-well proxiplates. The starting concentration of compound in each assay plate is 7.5 uM, followed by 3-fold dilutions, to give quadruplicate ten-point concentration curves. A 3× solution of MST1 enzyme in kinase buffer (Invitrogen, PR4940C) was added to wells containing compound or DMSO controls, followed by a 10 minute preincubation step. Reactions were initiated by adding 5 μL of a mixture of ATP and Z′-Lyte S/T Pep 7 (Invitrogen, PV3180) and proceeded at RT for 1 hour. […] At the end of the kinase reaction, 10 ul of developing solution (Invitrogen, catalog #PR4876B; development buffer A diluted […] in development buffer B) was added to each well and incubated at RT for 1 hr. All wells were read on a Tecan at 400 nm excitation and 460 nm/530 nm emission. Plus and minus enzyme controls were used to calculate percent inhibition and IC50 curves were generated using Excel.

[1] = 1 μM ATP, read-out: IC50 (μM) 1 μM ATP
[2] = 50 μM ATP, read-out: IC50 (μM) 50 μM ATP

Row | SMILES | IC50 [1] [µM] | IC50 [2] [µM]
1 | CCCC(C)NC(=O)c1nc(-c2cc(OC)c(OC)c(OC)c2)cnc1N (stereo not drawn) [3-amino-N-(pentan-2-yl)-6-(3,4,5-trimethoxyphenyl)pyrazine-2-carboxamide] | – | < 0.15
2 | CCN(CC)S(=O)(=O)c1ccc(-c2cnc(N)c(-c3ccc(C(N)=O)cn3)c2)cc1 [2′-amino-5′-(4-(N,N-diethylsulfamoyl)phenyl)-[2,3′-bipyridine]-5-carboxamide] | < 0.05 | < 0.01
3 | CC(C)Oc1cc(-c2nc(-c3ccc(S(=O)(=O)N(C)C4CC4)cc3)cnc2N)ccc1C(N)=O [4-(3-amino-6-(4-(N-cyclopropyl-N-methylsulfamoyl)phenyl)pyrazin-2-yl)-2-isopropoxybenzamide] | < 0.05 | < 0.01
4 | CCN(CC)S(=O)(=O)c1ccc(-c2cnc(N)c(-c3ccc(C(N)=O)c(F)c3)c2)cc1 [4-(2-amino-5-(4-(N,N-diethylsulfamoyl)phenyl)pyridin-3-yl)-2-fluorobenzamide] | – | < 0.05
5 | N#CC1(c2ccc(-c3cnc(N)c(-c4ccc5c(c4)CCNC5=O)n3)cc2)CCOCC1 [4-(4-(5-amino-6-(1-oxo-1,2,3,4-tetrahydroisoquinolin-6-yl)pyrazin-2-yl)phenyl)tetrahydro-2H-pyran-4-carbonitrile] | < 0.05 | < 0.01
6 | NC(=O)c1ccc(-c2cc(-c3ccc(S(N)(=O)=O)cc3)cnc2N)cc1 [4-(2-amino-5-(4-sulfamoylphenyl)pyridin-3-yl)benzamide] | – | < 0.15
7 | CN(C1CCC1)S(=O)(=O)c1ccc(-c2cnc(N)c(-c3ccc4c(c3)CCNC4=O)n2)cc1 [4-(5-amino-6-(1-oxo-1,2,3,4-tetrahydroisoquinolin-6-yl)pyrazin-2-yl)-N-cyclobutyl-N-methylbenzenesulfonamide] | < 0.01 | < 0.01
8 | NC(=O)c1ccc(-c2cc(-c3ccc(S(=O)(=O)NC4CC4)cc3Cl)cnc2N)cc1 [4-(2-amino-5-(2-chloro-4-(N-cyclopropylsulfamoyl)phenyl)pyridin-3-yl)benzamide] | – | < 0.15
9 | CCN(C)S(=O)(=O)c1ccc(-c2cnc(N)c(-c3ccc4c(O)nccc4c3)n2)cc1 [4-(5-amino-6-(1-hydroxyisoquinolin-6-yl)pyrazin-2-yl)-N-ethyl-N-methylbenzenesulfonamide] | < 0.01 | < 0.01
10 | CCCN(C)S(=O)(=O)c1ccc(-c2cnc(N)c(-c3ccc4c(c3)CCNC4=O)n2)cc1Cl [4-(5-amino-6-(1-oxo-1,2,3,4-tetrahydroisoquinolin-6-yl)pyrazin-2-yl)-2-chloro-N-methyl-N-propylbenzenesulfonamide] | < 0.01 | < 0.01

The remaining lines, values ahead:

Row | IC50 [1] [µM] | IC50 [2] [µM] | SMILES
11 | < 0.01 | < 0.01 | CN(C1CC1)S(=O)(=O)c1ccc(-c2cnc(N)c(-c3ccc4c(c3)NCCNC4=O)c2)cc1 [4-(6-amino-5-(5-oxo-2,3,4,5-tetrahydro-1H-benzo[e][1,4]diazepin-8-yl)pyridin-3-yl)-N-cyclopropyl-N-methylbenzenesulfonamide]
12 | < 0.05 | < 0.01 | CCN(CC)S(=O)(=O)c1ccc(-c2cnc(N)c(-c3ccc4c(O)ncnc4c3)c2)cc1 [4-(6-amino-5-(4-hydroxyquinazolin-7-yl)pyridin-3-yl)-N,N-diethylbenzenesulfonamide]
13 | < 0.15 | < 0.05 | CN(C1CC1)S(=O)(=O)c1ccc(-c2cnc(N)c(C#Cc3ccnc(O)c3)n2)cc1 [4-(5-amino-6-((2-hydroxypyridin-4-yl)ethynyl)pyrazin-2-yl)-N-cyclopropyl-N-methylbenzenesulfonamide]
14 | < 0.01 | < 0.01 | Nc1ncc(-c2ccc(S(=O)(=O)NC3CC3)cc2)nc1-c1ccc2c(c1)C1(CC1)CNC2=O [4-(5-amino-6-(1′-oxo-2′,3′-dihydro-1′H-spiro[cyclopropane-1,4′-isoquinolin]-6′-yl)pyrazin-2-yl)-N-cyclopropylbenzenesulfonamide]
15 | < 0.05 | < 0.01 | Nc1ncc(-c2ccc(S(=O)(=O)N(CC(F)(F)F)C3CCC3)cc2)cc1-c1ccc2c(c1)CCNC2=O [4-(6-amino-5-(1-oxo-1,2,3,4-tetrahydroisoquinolin-6-yl)pyridin-3-yl)-N-cyclobutyl-N-(2,2,2-trifluoroethyl)benzenesulfonamide]
16 | < 0.01 | < 0.01 | [2H]C1([2H])CNC(=O)c2ccc(-c3nc(-c4ccc(S(=O)(=O)N(C5CC5)C([2H])([2H])[2H])cc4)cnc3N)cc21 [4-(5-amino-6-(4,4-dideutero-1-oxo-1,2,3,4-tetrahydroisoquinolin-6-yl)pyrazin-2-yl)-N-cyclopropyl-N-trideuteromethyl-benzenesulfonamide]
17 | < 0.01 | < 0.01 | CN(C1CC1)S(=O)(=O)c1ccc(-c2cnc(N)c(-c3ccc4c(c3)OCCNC4=O)n2)cc1 [4-(5-amino-6-(5-oxo-2,3,4,5-tetrahydrobenzo[f][1,4]oxazepin-8-yl)pyrazin-2-yl)-N-cyclopropyl-N-methylbenzenesulfonamide]
18 | – | < 0.15 | CCN(CC)S(=O)(=O)c1ccc(-c2cnc(N)c(-c3ccc4c(=O)[nH]oc4c3)c2)cc1 [4-(6-amino-5-(3-oxo-2,3-dihydrobenzo[d]isoxazol-6-yl)pyridin-3-yl)-N,N-diethylbenzenesulfonamide]
19 | < 0.01 | < 0.01 | Nc1ncc(-c2ccc(S(=O)(=O)NC3CC3)cc2)cc1-c1ccc2c(c1)C1(CC1)NC2=O [4-(6-amino-5-(3′-oxospiro[cyclopropane-1,1′-isoindolin]-6′-yl)pyridin-3-yl)-N-cyclopropylbenzenesulfonamide]
20 | < 0.01 | < 0.01 | CN(C1CC1)S(=O)(=O)c1ccc(-c2cnc(N)c(-c3ccc4c(=O)[nH]ccc4c3)c2)cc1 [4-(6-amino-5-(1-oxo-1,2-dihydroisoquinolin-6-yl)pyridin-3-yl)-N-cyclopropyl-N-methylbenzenesulfonamide]
21 | < 0.01 | < 0.01 | CN(C1CC1)S(=O)(=O)c1ccc(-c2cnc(N)c(-c3ccc4c(c3)OC[C@H](CO)NC4=O)c2)cc1 [(S)-4-(6-amino-5-(3-(hydroxymethyl)-5-oxo-2,3,4,5-tetrahydrobenzo[f][1,4]oxazepin-8-yl)pyridin-3-yl)-N-cyclopropyl-N-methylbenzenesulfonamide]
22 | < 0.01 | < 0.01 | CN(C1CC1)S(=O)(=O)c1ccc(-c2cnc(N)c(-c3ccc4c(c3)CCNC4=O)c2)nc1 [6′-amino-N-cyclopropyl-N-methyl-5′-(1-oxo-1,2,3,4-tetrahydroisoquinolin-6-yl)-[2,3′-bipyridine]-5-sulfonamide]
23 | < 0.01 | < 0.01 | Nc1ncc(-c2ccc(F)cc2)nc1-c1cc2c(cn1)C(=O)NCC2 [6-(3-amino-6-(4-fluorophenyl)pyrazin-2-yl)-3,4-dihydro-2,7-naphthyridin-1(2H)-one]
24 | < 0.05 | < 0.01 | N#C[C@]1(c2ccc(-c3cnc(N)c(-c4ccc5c(c4)CCNC5=O)n3)cc2)[C@@H]2COC[C@@H]21 [(1R,5S,6s)-6-(4-(5-amino-6-(1-oxo-1,2,3,4-tetrahydroisoquinolin-6-yl)pyrazin-2-yl)phenyl)-3-oxabicyclo[3.1.0]hexane-6-carbonitrile]
25 | < 0.01 | < 0.01 | C[C@@H]1COc2cc(-c3cc(-c4ccc(S(=O)(=O)N(C)C5CC5)cc4)cnc3N)ccc2C(=O)N1 [(R)-4-(6-amino-5-(3-methyl-5-oxo-2,3,4,5-tetrahydrobenzo[f][1,4]oxazepin-8-yl)pyridin-3-yl)-N-cyclopropyl-N-methylbenzenesulfonamide]
